Laboratory results from ChEMBL document CHEMBL1147612, “Synthesis, topoisomerase I inhibition and structure-activity relationship study of 2,4,6-trisubstituted pyridine derivatives” (Bioorg Med Chem Lett, 2004).

Assays:
Format in all cases: functional, cell-based
A549 = assay: Antitumor cytotoxicity was determined against the A-549(human lung carcinoma) cell line; Range: 0.01 to 0.03
HCT-15 = assay: Antitumor cytotoxicity was determined against the HCT-15 (human colon adenocarcinoma) cell line; Range: 0.01 to 0.03
SK-OV-3 = assay: Antitumor cytotoxicity was determined against the SK-OV-3 (human ovary adenocarcinoma) cell line; Range: 0.01 to 0.03; conditions: SK-OV-3, Female gonad
SK-MEL-2 = assay: Antitumor cytotoxicity was determined against the SK-MEL-2 (human malignant melanoma) cell line; Range: 0.01 to 0.03

Measured: EC50

c1ccc(-c2cc(-c3ccccn3)nc(-c3ccccn3)c2)nc1
30 nM: all assays above
